The values that follow are results of earlier work, collected in patent publication US20040131702A1, “Use of selenite or preparation containing selenite for treating wounds” (priority 2001, published 2004).

The conditions of data set [1]: acid environment.
In data set [2] the test system is human body. The following applies: in vivo.
Data set [3] relates to animals. The following applies: in vivo.

Each structure is given as a SMILES string. Values joined by “and” are separate entries in the source; they are usually repeats but may differ in a detail not shown here. Equal values may be shown once.

Regarding `O=[Se](O)O` [selenite], in data set [1], the “Standard redox potential E0” value was −0.740 Volt and −0.740 (acid environment) Volt.
In the case of `[Se]` [selenium], the “Selenium content of the daily food above which the human body will fall ill” value in data set [2] is “more than 1 μg of selenium/g”. For the same compound, in data set [3], the “Selenium content of food above which animals exhibit symptoms of poisoning” value is listed as 5 to 10 μg of selenium/g.
